According to ChEMBL document CHEMBL4052789, “Essential structure of orexin 1 receptor antagonist YNT-707, Part I: Role of the 4,5-epoxy ring for binding with orexin 1 receptor” (Bioorg Med Chem Lett, 2017):
The source made the active and inactive calls. The rule behind the calls is not given here.

How the values were obtained:
Orexin receptor type 2 = target: T1, Orexin receptor type 2 (Homo sapiens, UniProt O43614); test: Antagonist activity at human OX2R expressed in CHOK1 cells assessed as inhibition of orexin A-induced intracellular Ca2+ release preincubated for 15 mins followed by orexin A addition by Fura 2-AM dye based fluorescence assay; type: functional, cell-based
T1 sequence (O43614 whole entry): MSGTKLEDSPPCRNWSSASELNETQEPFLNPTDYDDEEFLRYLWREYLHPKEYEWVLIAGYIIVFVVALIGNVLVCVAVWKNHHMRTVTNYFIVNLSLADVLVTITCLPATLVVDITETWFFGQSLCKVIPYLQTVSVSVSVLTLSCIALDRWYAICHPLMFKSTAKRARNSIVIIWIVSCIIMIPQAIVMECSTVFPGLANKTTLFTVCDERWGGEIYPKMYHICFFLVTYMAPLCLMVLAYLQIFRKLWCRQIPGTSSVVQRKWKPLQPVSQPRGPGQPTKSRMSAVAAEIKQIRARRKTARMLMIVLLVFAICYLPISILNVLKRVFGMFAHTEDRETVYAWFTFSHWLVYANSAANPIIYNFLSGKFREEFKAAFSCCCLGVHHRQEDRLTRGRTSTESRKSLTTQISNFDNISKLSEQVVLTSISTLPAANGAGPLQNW

[1] = target: T2, Orexin/Hypocretin receptor type 1 (Homo sapiens, UniProt O43613); test: (§1) Antagonist activity at human OX1R expressed in CHOK1 cells assessed as inhibition of orexin A-induced intracellular Ca2+ release preincubated for 15 mins followed by orexin A addition by Fura 2-AM dye based fluorescence assay; type: functional, cell-based
T2 sequence (O43613 whole entry): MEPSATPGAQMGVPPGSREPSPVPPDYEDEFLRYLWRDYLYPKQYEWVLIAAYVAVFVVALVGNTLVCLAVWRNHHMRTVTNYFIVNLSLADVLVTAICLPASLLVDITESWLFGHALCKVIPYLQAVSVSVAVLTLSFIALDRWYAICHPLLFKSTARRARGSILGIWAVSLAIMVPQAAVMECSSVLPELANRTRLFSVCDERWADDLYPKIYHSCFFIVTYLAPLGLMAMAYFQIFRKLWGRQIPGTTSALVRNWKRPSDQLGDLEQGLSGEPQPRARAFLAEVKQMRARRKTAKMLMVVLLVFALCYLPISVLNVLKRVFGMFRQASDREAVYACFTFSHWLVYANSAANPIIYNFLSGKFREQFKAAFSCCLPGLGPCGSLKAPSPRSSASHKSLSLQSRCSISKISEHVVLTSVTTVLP

[2] = target: T3, Orexin/Hypocretin receptor type 1 (Homo sapiens) (UniProt O43613); test: as §1; type: functional, cell-based
T3 sequence (whole entry): T2 sequence (O43613 whole entry)

Homo sapiens = organism: Homo sapiens; test: Selectivity ratio of Ki for human OX2R to Ki for human OX1R

Row | Compound | IC50 (Orexin receptor type 2) [nM] | Ki [1] [nM] | also measured
1 | COc1ccc2c(c1)[C@]13CCN(S(=O)(=O)c4ccccc4)[C@H](C2)[C@]1(O)CC[C@@H](N(C)C(=O)/C=C/c1ccoc1)C3 | > 10000 | 31.6 | –
2 | COc1ccc2c3c1O[C@H]1[C@@H](N(C)C(=O)/C=C/c4ccoc4)CC[C@@]4(O)[C@@H](C2)N(S(=O)(=O)c2ccccc2)CC[C@]314 | > 10000 | 849 | –
3 | CN(C(=O)/C=C/c1ccoc1)[C@@H]1CC[C@@]2(O)[C@H]3Cc4ccc(OCc5ccccc5)c5c4[C@@]2(CCN3S(=O)(=O)c2ccccc2)[C@H]1O5 | – | – | inhibition [2]: inactive
4 | COc1ccc2c3c1O[C@H]1[C@H](N(C)C(=O)/C=C/c4ccoc4)CC[C@@]4(O)[C@@H](C2)N(S(=O)(=O)c2ccccc2)CC[C@]314 | > 10000 | – | –
5 | CN(C(=O)/C=C/c1ccoc1)[C@@H]1CC[C@@]2(O)[C@H]3Cc4cccc5c4[C@@]2(CCN3S(=O)(=O)c2ccccc2)[C@H]1O5 | ≥ 10000 | – | IC50 [1]: 1910 nM
6 | COc1ccc2c(c1)[C@]13CCN(S(=O)(=O)c4ccccc4)[C@H](C2)[C@]1(O)CC[C@H](N(C)C(=O)/C=C/c1ccoc1)C3 | – | 11.2 | Ratio Ki (Homo sapiens): 26.1; Ki (Orexin receptor type 2): 294 nM
